Results: patent publication US12448624B2, “Modified nucleic acid having improved treatment efficacy, and anticancer pharmaceutical composition containing same” (INTEROLIGO CORPORATION, priority 2018, dated 2025)
One block for each molecule: values may come before it. {Gem} = gemcitabine nucleotide residue

Legend:
[1] = mouse, in vivo
Protocol: Male […]/severe combined immunodeficiency mice, NOD/Shi-scid, IL-2RγKO mice (NOG mice®) (Central Lab Animal Inc., Saeronbio Inc., Seoul) and female nu/nu athymic mice (Orientbio) were maintained in 12 hours light/12 hours dark cycle under pathogen-free conditions. At the time of surgery, 10 new pancreatic tumor specimens stored in the patient's primary tumor (Institutional Examination Committee No. 4-2017-0594) was placed on ice-cooled RPMI medium, PDX SOP of PDTX Cleanbench Department Laboratory Animal Resources (Yonsei Biomedical Research Institute, Seoul) was washed with cold PBS, and non-necrotic fragments were cut into small pieces (2×2×2 mm) to remove blood or lipid portions. […]
After skin incision in PDX mice, the control (No treatment), Gem-IP (; sol-gel type), IO101-IP (; sol-gel type), IO101/AC disk (2.0 mg/3.0%), IO101-Con/AC (2.0 mg/3.0%) and Gem/atelocollagen disk (0.12 mg/3.0%), respectively, were implanted locally by subcutaneous anesthetic dissection between skin and tumor. A tumor size was measured three times per week by caliper measurement (Mitutoyo, Absolute AOS Digmatic, Kawasaki, Japan), and a volume was calculated as described above. Tumor growth in drug-treated animals was expressed as a tumor growth rate (tumor volume/initial tumor volume) compared to vehicle-treated mice. […]

in vivo = details: rat, iv
Protocol: Sprague-Dawley male rats were subjected to induced anesthesia with isoflurane, which is an inhalation anesthetic, then a polyethylene (PE) tube (Clay Adams, Becton Dickinson, NJ, USA) was inserted into a carotid artery (for blood collection) and sutured with a suture, followed by fixing an end of the suture behind the neck. During surgery, anesthesia was maintained using ether and about 0.5 mL of physiological saline containing heparin (20 units/mL) was injected to prevent blood from clotting in a cannula. After the surgery is finished, the rats were placed in metabolic cages and allowed to recover completely from the anesthetic condition (4 to 5 hours), respectively. […] 1 and 2 ml/kg of drugs were administered intravenously. […] 5. 15. 30, 45, 60, 120, 360 and 720 minutes after the administration, 0.3 mL of blood was each collected through a […]. […] Then, the blood in the Eppendorf tube was immediately centrifuged, followed by storing the plasma.
All analytical procedures were implemented under conditions of shielding the tube. That is, all procedures were performed under quantification condition: SRM (selected reaction monitoring) mode (see Table 5 above), fixed phase condition: Hypersil gold C18, 1.9 μm, 100×2.1 mm^2 (Thermo Scientific, Matriks, Oslo, Norway), and mobile phase condition: distilled water (A) containing 0.1% formic acid and acetonitrile (B) (see Table 6 above).
Metformin as an internal standard substance (IS) was dissolved in acetonitrile to prepare another working solution of 645 ng/mL.
150 μL of the internal standard, that is, metformin was added to 50 μL of plasma (645 ng/mL in acetonitrile) and vortexed for 10 minutes, followed by performing centrifugation at 15,000 rpm and […] for 20 minutes. Thereafter, 150 μL of the supernatant was taken and transferred to another Eppendorf tube, and then the organic solvent was dried under a nitrogen stream. Then, 125 μL of tertiary distilled water was added to the dried Eppendorf tube, allowed to be redissolved. Then, the solution was vortexed for 5 minutes, centrifuged at 15,000 rpm and […] for 5 minutes. Thereafter, 100 μL of the supernatant was transferred to the vial for LC-MS/MS, 5 μL of the supernatant was injected and analyzed by LC-MS/MS.
Values of an area under the plasma concentration-time curve (AUCt) were calculated using a log-linear trapezoidal equation from the plasma concentration-time curves after the administration of drug to the final quantification time (specifically, the linear-trapezoidal equation is used in a section where the plasma concentration is increased, while in another section where plasma concentration is decreased, the trapezoidal equation is used by log transforming the concentration value). After oral administration, the highest plasma concentration (Cmax) and the time to reach the highest plasma concentration (Tmax) were determined from the plasma concentration-time curve. Values of the area (AUCinf) under the plasma concentration till infinite time-time curve were determined using the following equation. A terminal elimination rate constant (γZ) and half-life (t1/2) were determined from a slope of elimination of the plasma concentration. AUinf=AUCt+Ct/γZ(Ct: final quantification concentration, γZ: terminal elimination rate constant)

[2] = tested on: patient-derived pancreatic cancer cells; assay: PDX pancreatic cancer mouse model, TUNEL analysis; assay type: in vivo; details: 1 month after implantation
[3] = Stability of atelocollagen/collagen disk formulations in rat plasma; assay type: in vitro ADME; details: 37° C.
Protocol: Sample treatment, calibration curve creation, and LC-MS/MS analysis conditions are the same as described above.
Sample treatment was conducted as follows. […] Thereafter, the supernatant was taken and then centrifuged again under the same conditions as above. Then, 5 μL of the concentrate was taken and diluted by 10-fold using the same rat plasma in order to measure a concentration in plasma (“plasma concentration”). […] The above sample treatment was conducted in the same manner as the calibration curve creation, followed by performing sample analysis under the same LC-MS/MS conditions.
In order to evaluate the stability of the IO101L/atelocollagen disk formulation in rat plasma, experiments were conducted with 5 groups (Groups 1-5) (see Table 12 below). Normal collagen (SK Co.) was used for comparison with atelocollagen.

[4] = In vitro stability: dFdC and dFdU in plasma by LC-MS/MS; assay type: in vitro ADME; details: rat plasma
Protocol: From the chromatogram obtained by the established LC-MS/MS assay method, peak area ratios of dFdC, dFdU and dFdCTP to a peak area of the internal standard substance were estimated, followed by calculating a concentration in the mouse plasma and a concentration in tissues from a previously created calibration curve.
1 mL of mouse blood was collected and placed in a 1.5 mL Eppendorf tube containing 10 μL of 10 mg/mL (in DW) tetrahydrouridine (THU). After centrifugation under conditions of 14,000 rpm and 4° C. for 2 minutes using a centrifuge, only plasma was taken and transferred to another vial and stored at −80° C. After transferring 50 μL of plasma to a 1.5 mL amber Eppendorf tube, 150 μL of an internal standard substance (meltform 1.29 μg/mL in ACN) was added and vortexed for 10 minutes. Centrifugation was conducted using a centrifuge under conditions of 14,000 rpm and 4° C. for 20 minutes. In the centrifuged tube, 150 μL of sample was transferred to another 1.5 mL amber Eppendorf tube. An organic solvent was dried using a GeneVac EZ-2 automated evaporation system (GeneVac Ltd., Ipswich, UK). (GeneVac HPLC mode, max temperature 35° C., 1 hr). The organic solvent was reconstituted by adding 125 μL DW to a 1.5 mL dried amber Eppendorf tube. After vortexing for 5 minutes, centrifugation was conducted using a centrifuge under conditions of 14,000 rpm and 4° C. for 5 minutes. The supernatant of the centrifuged solution was added in an amount of 100 μL to each vial for LC-MS/MS using a PTFE (hydrophilic) 0.2 μm syringe filter (Toyo Toshi, Japan). Specifically, 5 μL of the supernatant was injected into each LC-MS/MS.
Chromatography was performed using an Agilent 1200 series separation module (Agilent Technologies, Waldbronn, Germany). […] An injection volume was 5 μL, a mobile phase was a gradient eluent system [A: 100% ACN, B: 0.1% formic acid in DW], and a total running time was 20 minutes. A calibration range was set to be 20 to 5,000 ng/mL.
Each sample was treated according to the above 2-1-1 and 2-1-2, and a ratio of dFdC/dFdU in rat plasma was measured in regard to the compound types of (Gem)x-[TGG]m[TTG][TGG]n.

[5] = tested on: MD-MBA 231 (breast cancer); assay: Cell proliferation inhibition (MTT), MD-MB231; assay type: cell-based; details: MTT assay, 3 days
Protocol: (§1) 2.5 to 5.0×10^5 cells/well, which is the cell number defined by cell test to determine the appropriate cell concentration in the pancreatic cancer cell line B x PC3 cell (ATCC, IMDM+10% PBS), were seeded in a 96 well plate and incubated for one day. […] The treated BxPC3 cells were incubated in a 5% CO2 incubator for 3 days, treated with 20 μL of reagent solution for MTT assay (Cell Proliferation KitII, Roche), and then incubated hourly (10 minutes, 30 minutes, 60 minutes), followed by measuring absorbance at 490 nm by a reader through ELISA (See FIGS. 28 and 29).
(§2) Cell proliferation inhibitory efficacy against other cell lines MD-MBA 231 (breast cancer), Uuh-7 (liver cancer), HT29 (colon cancer) and Mv4-11 (AML) was also verified in the same manner as described above.

[6] = tested on: BxPC3, PANC-1, Miapaca-2, and Capan-1; assay: Cell survival (WST-1) of pancreatic cancer cell lines; assay type: cell-based; details: WST-1, 48 hours, 100 nM to 100 μM, all four pancreatic cancer cell lines
Protocol: BxPC3, PANC-1, Miapaca-2, and Capan-1 were cultured as pancreatic cancer cell lines, respectively. When the cells were stable after several subcultures, 1×10^3 cells were seeded in 96 well plates to verify drug effects. On the next day, IO101, IO100, IO100-Con, IO101-Con and Gem at the highest concentration of 100 μM were diluted by 1/10 per each well, and prepared at a concentration of 4 points up to 100 nM. Then, the cells seeding in the 96 well plates were treated using the above prepared variants. After 48 hours, 10 μl of WST-1 solution was added to the wells and incubated in a 37° C. incubator for 1 hour. Subsequently, each sample was measured at 440 nm in a micro plate reader (VERSA Max). After calculation of the measured values, a cell survival rate graph for each treatment concentration was drawn up.

[7] = tested on: BxPC3 (pancreatic cancer); assay: Cell proliferation inhibition (MTT), BxPC3; assay type: cell-based; details: MTT assay, 3 days
Protocol: as §1, §2

- dFdC/dFdU ratio [4]: 2.79
Molecule: (Gem)2-[TGG]2[TTG][TGG]3 [compound 5]

- dFdC/dFdU ratio [4]: 2.84
Molecule: (Gem)2-[TGG]3[TTG][TGG]2 [compound 6]

- dFdC/dFdU ratio [4]: 3.29
Molecule: (Gem)2-[TGG]3[TTG][TGG]3 [compound 7]

- dFdC/dFdU ratio [4]: 3.80
Molecule: (Gem)2-[TGG]3[TTG][TGG]4 [compound 8]

- dFdC/dFdU ratio [4]: 6.04
Molecule: (Gem)2-[TGG]4[TTG][TGG]3 [compound 9]

- dFdC/dFdU ratio [4]: 13.63
Molecule: (Gem)2-[TGG]5[TTG][TGG]4 [compound 12]

- dFdC/dFdU ratio [4]: 11.85
Molecule: (Gem)2-[TGG]5[TTG][TGG]5 [compound 13]

- dFdC/dFdU ratio [4]: 11.59
Molecule: (Gem)2-[TGG]5[TTG][TGG]6 [compound 14]

- dFdC/dFdU ratio [4]: 13.67
Molecule: (Gem)2-[TGG]6[TTG][TGG]5 [compound 15]

- dFdC/dFdU ratio [4]: 13.59
Molecule: (Gem)2-[TGG]6[TTG][TGG]6 [compound 16]

Second part, the molecule before the results:

Molecule: Nc1ccn([C@@H]2O[C@H](CO)[C@@H](O)C2(F)F)c(=O)n1 [Gemcitabine, 2,2′-difluorodeoxycytidine]
- PLT [1]: 684.1 ± 246.3 X1000/μl
- AUC(0-inf) (in vivo; male, Sprague-Dawley, 8 mg/kg): 24500 ng·h/mL
- AUC(0-t) (in vivo; male, Sprague-Dawley, 8 mg/kg): 23200 ng·h/mL
- Cmax (in vivo; male, Sprague-Dawley, 8 mg/kg): 13300 ± 5640 ng/mL
- MRT (in vivo; male, Sprague-Dawley, 8 mg/kg): 3.48 h
- Tmax (in vivo; male, Sprague-Dawley, 8 mg/kg): 1 min
- Vd (in vivo; male, Sprague-Dawley, 8 mg/kg): 1.15 ± 0.223 L/kg
- clearance (in vivo; male, Sprague-Dawley, 8 mg/kg): 5.59 ± 0.86 mL/min/kg
- dFdU AUCt (in vivo; male, Sprague-Dawley, 8 mg/kg): 265 ± 57.1 µg·min/mL
- dFdU Cmax (in vivo; male, Sprague-Dawley, 8 mg/kg): 477 ± 87.9 ng/mL
- dFdU Tmax (in vivo; male, Sprague-Dawley, 8 mg/kg): 240 (120-360) min
- half-life (in vivo; male, Sprague-Dawley, 8 mg/kg): 177 ± 28.5 min
- concentration at 30 min (in vivo; male, Sprague-Dawley, Gemcitabine blood concentration, 30 minutes): 5600 ng/mL
- concentration at 45 min (in vivo; male, Sprague-Dawley, Gemcitabine blood concentration, 45 minutes): 3410 ng/mL
- concentration at 60 min (in vivo; male, Sprague-Dawley, Gemcitabine blood concentration, 60 minutes): 3550 ng/mL
- concentration at 120 min (in vivo; male, Sprague-Dawley, Gemcitabine blood concentration, 120 minutes): 2800 ng/mL
- dFdU blood concentration, 1 minute (in vivo): BLLoQ
- dFdU blood concentration, 5 minutes (in vivo): BLLoQ
- apoptosis (TUNEL analysis) in tumor [2]: an apoptosis process was confirmed
- dFdC Blood concentration ([3]; 2 hours incubation): 218 µg/mL
- dFdC Blood concentration, supernatant ([3]; supernatant (Ultracell-3K), 2 hours): 232 µg/mL

Molecule: (Gem)2-[TGG]1[TTG][TGG]1 [compound 1]
- dFdC/dFdU ratio [4]: 1.76

Molecule: (Gem)2-[TGG]1[TTG][TGG]2 [compound 2]
- dFdC/dFdU ratio [4]: 2.01

Molecule: (Gem)2-[TGG]2[TTG][TGG]1 [compound 3]
- dFdC/dFdU ratio [4]: 2.20

Molecule: (Gem)2-[TGG]2[TTG][TGG]2 [compound 4]
- dFdC/dFdU ratio [4]: 2.61

Molecule: (Gem)2-[TGG]4[TTG][TGG]4 (DNA TGGTGGTGGTGGTTGTGGTGGTGGTGG; two 5' gemcitabine residues, chemistry not fully specified) [compound 10, gemcitabine-containing oligonucleotide variant]
- IC50 [5]: 18 nM
- dFdC/dFdU ratio [4]: 12.00
- pancreatic cancer cell growth inhibition (cell survival rate) [6]: effectively inhibits pancreatic cancer cell growth in proportion to a drug concentration
- IC50 [7]: 8.9 nM

Molecule: (Gem)2-[TGG]4[TTG][TGG]5 (DNA TGGTGGTGGTGGTTGTGGTGGTGGTGGTGG; DNA, 5' {Gem}-{Gem}, backbone not given here) [compound 11, gemcitabine-containing oligonucleotide variant]
- dFdU Tmax (in vivo): 360 min
- IC50 [5]: 15 nM
- dFdC/dFdU ratio [4]: 14.10
- pancreatic cancer cell growth inhibition (cell survival rate) [6]: pancreatic cancer cell growth was effectively inhibited
- IC50 [7]: 8.5 nM
